Assay: Inhibition of farnesyltransferase

SMILES | pIC50
COC(=O)c1ccc(COC(c2ccc(C#N)c(-c3ccccc3C(F)(F)F)c2)c2cncn2C)nc1 (configuration not stated) | 8.04
Cn1cncc1C(OCc1ccc(C#N)c(N2CCOCC2)n1)c1ccc(C#N)c(-c2ccccc2C(F)(F)F)c1 (configuration not stated) | 8.88
Cn1cncc1C(OCc1ccc(C#N)c(NCc2cccc(F)c2)n1)c1ccc(C#N)c(-c2ccccc2C(F)(F)F)c1 (configuration not stated) | 8
Cn1cncc1C(OCc1ccc(C#N)cc1)c1ccc(C#N)c(-c2ccccc2C=O)c1 (configuration not stated) | 8.72
Cc1cccc(-c2cc(C(OCc3ccc(C#N)cc3)c3cncn3C)ccc2C#N)c1C (configuration not stated) | 8.67
Cn1cncc1C(OCc1ccc(C(F)(F)F)c(F)c1)c1ccc(C#N)c(-c2ccccc2C(F)(F)F)c1 (configuration not stated) | 8.21
Cn1cncc1C(OCc1ccc(Cl)c(Cl)c1)c1ccc(C#N)c(-c2ccccc2C(F)(F)F)c1 (configuration not stated) | 8.76
CC(=O)N1CCN(c2nc(COC(c3ccc(C#N)c(-c4ccccc4C(F)(F)F)c3)c3cncn3C)ccc2C#N)CC1 (configuration not stated) | 8.58
Cn1cncc1C(OCc1ccc(C#N)cc1)c1ccc(C#N)c(-c2cccc(Cl)c2Cl)c1 (configuration not stated) | 8.82
Cn1cncc1C(OCc1ccc(C#N)c(N2CCC(CO)CC2)n1)c1ccc(C#N)c(-c2ccccc2C(F)(F)F)c1 (configuration not stated) | 8.74
Cn1cncc1C(OCc1ccc(C#N)c(NCC2CCCO2)n1)c1ccc(C#N)c(-c2ccccc2C(F)(F)F)c1 (configuration not stated) | 8.17
Cn1cncc1C(OCc1ccc(C#N)c(N2CCC[C@@H]2C(=O)O)n1)c1ccc(C#N)c(-c2ccccc2C(F)(F)F)c1 (some centres not stated) | 8.44
Cn1cncc1C(OCc1ccc(C#N)c(N2CCN(CCO)CC2)n1)c1ccc(C#N)c(-c2ccccc2C(F)(F)F)c1 (configuration not stated) | 8.88
Cn1cncc1C(OCc1ccc(C#N)c(N2CCCC(O)C2)n1)c1ccc(C#N)c(-c2ccccc2C(F)(F)F)c1 (configuration not stated) | 8.88
Cn1cncc1C(OCc1ccc(C#N)c(N2CCC(O)C2)n1)c1ccc(C#N)c(-c2ccccc2C(F)(F)F)c1 (configuration not stated) | 8.45
Cn1cncc1C(OCc1ccc(C#N)c(NCCc2ccccc2)n1)c1ccc(C#N)c(-c2ccccc2C(F)(F)F)c1 (configuration not stated) | 8.04
CN1CCN(c2nc(COC(c3ccc(C#N)c(-c4ccccc4C(F)(F)F)c3)c3cncn3C)ccc2C#N)CC1 (configuration not stated) | 8.92
Cn1cncc1C(OCc1ccc(C#N)c(NCC2CCOC2)n1)c1ccc(C#N)c(-c2ccccc2C(F)(F)F)c1 (configuration not stated) | 8.11
CC(=O)NC1CCN(c2nc(COC(c3ccc(C#N)c(-c4ccccc4C(F)(F)F)c3)c3cncn3C)ccc2C#N)C1 (configuration not stated) | 8.76
Cn1cncc1C(OCc1ccc(F)c(C(F)(F)F)c1)c1ccc(C#N)c(-c2ccccc2C(F)(F)F)c1 (configuration not stated) | 8.38
Cn1cncc1C(OCc1ccc(C#N)c(N2CCC[C@@H]2CO)n1)c1ccc(C#N)c(-c2ccccc2C(F)(F)F)c1 (some centres not stated) | 8.69
Cn1cncc1C(OCc1ccc(C#N)cc1)c1ccc(C#N)c(-c2cccc3ccccc23)c1 (configuration not stated) | 9.69

The next lines start with the values.

pIC50 | SMILES
9.3 | N#Cc1ccc(Cn2cncc2COCc2ccc(C#N)cc2-c2cccc(OC(F)(F)F)c2)cc1
9.22 | Cc1ccc(-c2cc(C#N)ccc2COCc2cncn2Cc2ccc(C#N)cc2)cc1C
8.36 | N#Cc1ccc(Cn2cncc2COCc2ccc(C#N)cc2-c2ccc(C(F)(F)F)cc2)cc1
8.08 | N#Cc1ccc(COCc2cncn2Cc2ccc(Cl)cc2)c(-c2ccc3c(c2)OCO3)c1
8.25 | Cn1cncc1C(OCc1ccc(C#N)cc1)c1ccc(C#N)c(-c2ccccc2CO)c1 (configuration not stated)
9.23 | CCOc1cccc(-c2cc(C#N)ccc2COCc2cncn2Cc2ccc(C#N)nc2)c1
9.35 | CC(C)(C)c1ccc(-c2cc(C#N)ccc2COCc2cncn2Cc2ccc(C#N)cc2)cc1
8.52 | N#Cc1ccc(COCc2cncn2Cc2ccc(C#N)nc2)c(-c2ccc3c(c2)OCO3)c1
9.03 | N#Cc1ccc(Cn2cncc2COCc2ccc(C#N)cc2-c2ccc3ccccc3c2)cc1
8.92 | CCOc1ccc(-c2cc(C#N)ccc2COCc2cncn2Cc2ccc(C#N)cc2)cc1
9.04 | N#Cc1ccc(OCc2cncn2Cc2ccc(C#N)c(-c3cccc4ccccc34)c2)nc1
8.11 | COc1ccc(-c2cc(C#N)ccc2COCc2cncn2Cc2ccc(C#N)cc2)cn1
8.52 | N#Cc1ccc(COCc2cncn2Cc2ccc(C#N)nc2)c(-c2cccc(Cl)c2)c1
8.35 | COc1cccc(-c2cc(C#N)ccc2COCc2cncn2Cc2ccc(C#N)cn2)c1
9.49 | N#Cc1ccc(OCc2cncn2Cc2ccc(C#N)c(-c3cccc4ccccc34)c2)cc1
8.82 | COc1cccc(-c2cc(C#N)ccc2COCc2cncn2Cc2ccc(C#N)nc2)c1
9.43 | N#Cc1ccc(Cn2cncc2COCc2ccc(C#N)cc2-c2cccc(Cl)c2)cc1
9.2 | N#Cc1ccc(Cn2cncc2COCc2ccc(Cl)cc2-c2cccc(Cl)c2)cc1
8.32 | N#Cc1ccc(Cn2cncc2COCc2ccc(C#N)cc2-c2ccc3c(c2)OCO3)nc1
9.42 | N#Cc1ccc(Cn2cncc2COc2ccc(C#N)c(-c3cccc4ccccc34)c2)cc1
9.43 | N#Cc1ccc(Cn2cncc2COCc2ccc(C#N)cc2-c2ccc(Cl)c(Cl)c2)cc1
8.36 | N#Cc1ccc(Cn2cncc2COCc2cnc(C#N)cc2-c2cccc(Cl)c2)cc1
8.76 | N#Cc1ccc(Cn2cncc2COCc2ccc(C#N)cc2-c2cccc(Cl)c2)nc1
8.88 | N#Cc1ccc(Cn2cncc2COCc2ccc(C#N)cc2-c2cccc3ccccc23)cc1
8.85 | CCOc1cccc(-c2cc(C#N)ccc2COCc2cncn2Cc2ccc(Cl)cc2)c1
9.18 | N#Cc1ccc(Cn2cncc2COCc2ccc(C#N)cc2-c2ccc(OC(F)(F)F)cc2)cc1
9.09 | N#Cc1ccc(Cn2cncc2COCc2ccc(C#N)cc2-c2cccc3c2OCO3)cc1
8.88 | CC(=O)c1ccc(-c2cc(C#N)ccc2COCc2cncn2Cc2ccc(C#N)cc2)cc1
8.65 | COc1cccc(-c2cc(C#N)ccc2COCc2cncn2Cc2ccc(Cl)cc2)c1
7.88 | CC(=O)Nc1cccc(-c2cc(C#N)ccc2COCc2cncn2Cc2ccc(C#N)cc2)c1

Reference: ChEMBL document CHEMBL1795312, “Insights into the structural requirements of farnesyltransferase inhibitors as potential anti-tumor agents based on 3D-QSAR CoMFA and CoMSIA models” (Eur J Med Chem, 2008)
